A value given as a limit tells only on which side of the number the result lay.

For assay [1], the system named is Alpha-glucosidase (Saccharomyces cerevisiae). Put plainly: Inhibitory activity against alpha-glucosidase of yeast at a concentration of 0.1 mM.
The test system of assay [2] is alpha-glucosidase (Saccharomyces cerevisiae). In words: Inhibitory activity against alpha-glucosidase of yeast; No inhibition.

`C[C@@H]1NC[C@@H](CO)[C@@H](O)[C@@H]1O`: the inhibition in assay [1] is under 20%. Moreover, the Ki result in assay [2] is reported as “Not Active”.

For the origin of these results see ChEMBL document CHEMBL1131954, “Homoisofagomines: chemical-enzymatic synthesis and evaluation as alpha- and beta-glucosidase inhibitors” (Bioorg Med Chem Lett, 1999).
